US20190330167A1, “ACTIVATORS OF HIV LATENCY” (priority 2016, published 2019)
Where two headings read alike, the source gives them in different places.

What was measured:
[1] = system: HIV-1 gene expression in J.Lat10.6 latently infected T-cell line; assay: cells; type: cell-based; conditions: for percent of the cells treated with reactivated HIV-1 gene expression: J.Lat10.6 model, alone at 10 μM and in combination, 48 hrs post treatment; for IC50: Human immunodeficiency virus 1, J-Lat 10.6, 48 h, read-out: IC50 for reactivation of HIV-1 gene expression
Protocol: The J.Lat10.6 latently infected T-cell line was treated with 4 compounds of the present invention, DP#6 (Compound 41), DP#14 (Compound 7), DP#18 (Compound 65), and DP#19 (Compound 73) and reactivated for 48 hrs. HIV-1 reactivation was measured by flowcytometry for GFP expression. Error bars represent standard deviation of n=3 experiments.
FIG. 45. […] The J.Lat10.6 model of HIV-1 latency was treated with JQ1 (+) and DP#14 (Compound 7) alone at 10 μM and in combination, and the HIV-1 gene expression measured 48 hrs post treatment. Error bars represent standard deviation of n=3 experiments. OPTI represents media alone, without DP#14.
FIG. 47. […] The J.Lat10.6 model of HIV-1 latency was treated with PFI-1 and DP#14 alone at 10 μM and in combination, and the HIV-1 gene expression measured 48 hrs post treatment. Error bars represent standard deviation of n=3 experiments. OPTI represents media alone, without DP#14.
Compounds were also evaluated in a dose ranging titration with HIV latently infected cell lines (J.Lat 6.3 and 10.6). The specificity of the selected compounds in these cell line models, were measured by inserting a CMV-DS.Red reporter into these cells to co-ordinately measure HIV specific LTR-Green fluorescent protein and non-specific DS.Red expression during FACS analysis.
The J.Lat model of HIV-1 latency is a well-established model used widely and is described in detail in the following paper:
HIV reproducibly establishes a latent infection after acute infection of T cells in vitro, Eric Verdin et al, The EMBO Journal Vol. 22 No. 8 pp 1868-1877, 2003

[2] = system: latent HIV in resting memory CD4+ T cells isolated by leukapheresis from HIV+ donors on antiretroviral therapy; type: cell-based, HIV-1; conditions: 72 hrs
From the text: FIG. 41a. […] Resting memory CD4+ T cells isolated by leukapheresis from HIV+ donors on antiretroviral therapy were reactivated for 72 hrs using known LRAs including vorinostat (Vor) also known as suberanilohydroxamic acid, another hydroxamic acid panobinostat (Pan), and the depsipeptide Romidepsin (Rom) that are all HDACi, together with JQ1 (+) which is a thienotriazolodiazepine known to inhibit the BET family of bromodomain proteins including BRD2, BRD3, and BRD4, and compared with compounds according to the present invention DP#6 (Compound 41), DP#14 (Compound 7), and DP#16 (Compound 64).
FIG. 41c. […] Resting memory CD4+ T cells isolated by leukapheresis from HIV+ donors on antiretroviral therapy were reactivated for 72 hrs using known (vorinostat, Vor; panobinostat, Pan; romidepsin, Rom; and JQ1 (+)) and compounds according to the present invention (DP#6 (Compound 41), DP#14 (Compound 7), and DP#16 (Compound 64)).
FIG. 42c. […] Resting memory CD4+ T cells isolated by leukapheresis from HIV+ donors on antiretroviral therapy were reactivated for 72 hrs using known (JQ1 (+)) and compounds according to the present invention (DP#14 (Compound 7)) alone and in combination, and HIV-1 RNA detected through qPCR.
Total peripheral blood mononuclear cells (PBMC) were stored frozen in liquid nitrogen and prior to use, vials of frozen cells (0.5×10^8 PBMCs/vial or 1×10^8 PBMCs/vial) were quick thawed in a 42° C. water bath. Cells were promptly transferred to a 15 mL tube with 5 mL FBS dropwise then, then 6 mL of RF10 was added. Cells were pelleted at 300 g for 10 min at room temperature. Following aspiration, the cells were resuspended in RF10, pooled into a 50 mL tube which was topped up with RF10. PBMC were pelleted again at 300 g for 10 min at room temperature. Following aspiration, the cells were resuspended in PBS(−/−) and counted. CD4+ T cells were then isolated from 4×10^8 PBMCs that were pelleted and resuspended in PBS(−/−) at 1×10^7 cells/40 μL. 10 μL of CD4+ T cell Biotin-Antibody cocktail (Miltenyi Biotec) for every 1×10^7 cells was added and the mix refrigerated for 5 min. 30 μL of PBS(−/−) for every 1×10^7 cells was added, and 20 μL of the CD4+ T cell MicroBeads for every 1×10^7 cells was added and the mix refrigerated for 10 min. Unlabelled CD4+ T cells were then isolated by negative selection using magnetic separation. CD4+ T cells were then counted before being diluted to 4×10^6 cells/500 μL in RF10 for each condition and seeded into a 48 well plate.
Latent HIV was reactivated in the presence of the HIV integrase inhibitor Raltagravir (Ral) to prevent any further rounds of infection. Ral was made to [2 μM] in RF10+IL-2 (2 U/mL), and used to make 1 mL preparation of each drug up at [×2]. 500 μL of the [×2 Ral/IL-2/drug] was then added to the appropriate wells containing cells. Cells were transported to PC3 and incubated for 72 hrs.
Following reactivation, 800 μL of cell supernatant was transferred to labeled 1.5 mL screwcap tubes, pelletted at 800 g for 10 min then transferred to a second set of tubes and frozen for possible use at a later date. 800 μL of PBS(−/−) was added to each well to mix the cells and 50 μL of cells transferred to another set of tubes for live/dead staining and flow cytometry. Cells were pelleted at 400 g for 10 min, the media aspirated and cells resuspended in 100 μL of a [×1] APC-cy7 live/dead stain (Life technologies).

[3] = system: HIV-1 long terminal repeat (LTR)-driven luciferase reporter gene in FlipIn.FM HEK293 cells; assay: cells; type: cell-based; conditions: for fold change in HIV-1 gene expression over the unstimulated baseline: FlipIn.FM model, alone at 10 μM and in combination, 48 hrs post treatment; for EC50: Human immunodeficiency virus 1, HEK293, HIV-LTR driven latent reporter, 11-point, 2-fold dilution series, highest concentration 40 μM, read-out: Latent reporter Av EC50
Protocol: FIG. 44. […] The FlipIn.FM model of HIV-1 latency was treated with JQ1 (+) and DP#14 (Compound 7) alone at 10 μM and in combination, and the HIV-1 gene expression measured 48 hrs post treatment. Error bars represent standard deviation of n=3 experiments. OPTI represents media alone, without DP#14.
FIG. 46. […] The FlipIn.FM model of HIV-1 latency was treated with PFI-1 and DP#14 alone at 10 μM and in combination, and the HIV-1 gene expression measured 48 hrs post treatment. Error bars represent standard deviation of n=3 experiments. OPTI represents media alone, without DP#14.
Explicitly, HEK293 derived FlipIn-FM and FlipIn-RV dual reporter cells each include a single stable HIV-1 long terminal repeat (LTR)-driven luciferase reporter genes, with a second complimentary non-HIV (off-target) luciferase reporter. These cell lines model post integration latency and read-through transcription by expressing a low level of HIV-1 Tat protein via a native Internal Ribosome Entry Site (IRES) found within Tat, from a chimeric cellular-tat gene cassette. FlipIn-FM and FlipIn-RV clones were chosen for low basal levels of LTR activity and high responsiveness to Tat as well as many Latency Reversing Agents (LRAs).
The dual reporter cell lines contain three stably integrated constructs that together allow for detection of novel LRAs, capable of potent and specific HIV reactivation. The FlipIn.FM line contains a proviral LTR-driven nef/CBR reporter fusion gene, allowing for detection of viral gene expression. A second CMV-driven CBG luciferase reporter allows for detection of off target drug effects, including non-specific activation and drug toxicity. The third construct contains the first coding exon of HIV-1 tat, within human Growth Hormone (hGH) as a chimeric gene, expressing HIV-1 Tat protein from an IRES mechanism that underlies the tat exon. This construct models read-through transcription and the low level of Tat protein expression that occurs during post integration latency. The counter screening reverse cell line, FlipIn.RV, contains the same three components with the Click Beetle Luciferase genes in the opposite orientation (LTR-CBG and CMV-CBR) for counter screening.
Compounds were evaluated in an 11-point titration using normal CMV-CBG/LTR-CBR reporter cell line and an 11 point reverse CMV-CBR/LTR-CBG reporter cell line.
The FlipIn cell lines were therefore designed with a dual purpose, to detect novel compounds that reactivate HIV-1 and to also screen out compounds that behaved in a largely non-specific manner. To achieve the latter, the cell lines contain an “off target” reporter gene construct, driven by the unrelated CMV-IE promoter, that allows for the detection of drug mediated off target effects including global gene activation as well as possible toxicity.
The HIV-LTR driven latent reporter gene identifies the HIV-specific activation, and the term “global reporter” is interchangeable with “off target reporter” and refers to the unrelated CMV-IE promoter driven reporter gene, which is used as a surrogate for global gene activation. […] The highest concentration tested here was 40 μM.

[4] = system: J.Lat10.6 T-cell line; assay: Dose dependent toxicity in the J.Lat model; type: cell-based; conditions: for concentration above which notable toxicity: dose dependent toxic effect
[5] = normalized between unstimulated baseline and PMA positive control as 100%, concentration not given

| SMILES | induction of HIV-1 gene expression, % of the normalized value [2, 5] | IC50 [1] | EC50 [3] | other results |
| --- | --- | --- | --- | --- |
| Cc1sc2c(c1C)C(c1ccc(Cl)cc1)=N[C@@H](CC(=O)OC(C)(C)C)c1nnc(C)n1-2 [JQ1 (+), reference compound] | 39% |  |  | percent of the cells treated with reactivated HIV-1 gene expression [1]: 22.8%; fold change in HIV-1 gene expression over the unstimulated baseline [3]: 12.8 fold |
| C/C=C1\NC(=O)[C@H]2CSSCC/C=C/[C@H](CC(=O)N[C@H](C(C)C)C(=O)N2)OC(=O)[C@H](C(C)C)NC1=O [Romidepsin, reference compound] | 67% |  |  |  |
| COc1ccccc1S(=O)(=O)Nc1ccc2c(c1)CN(C)C(=O)N2 [PFI-1, reference compound] |  |  |  | percent of the cells treated with reactivated HIV-1 gene expression [1]: 20.6%; fold change in HIV-1 gene expression over the unstimulated baseline [3]: 3.6 fold |
| Cc1cnc(NC(=O)N2CCN(c3cnc(Cl)c(Cl)c3)CC2)s1 [Compound 73] |  | < 110 nM | 280 nM | concentration above which notable toxicity [4]: > 156 nM |
| Cc1[nH]c2ccccc2c1CCNCc1ccc(/C=C/C(=O)NO)cc1 [Panabinostat, reference compound] | 57% |  |  |  |
| Cc1ccc(N2CCN(C(=O)Nc3ncc(C#N)s3)CC2)cc1Cl [Compound 65] |  | 650 nM | 330 nM | concentration above which notable toxicity [4]: above 1.25 μM |
| O=C(CCCCCCC(=O)Nc1ccccc1)NO [Vorinostat, suberanilohydroxamic acid, reference compound] | 58% |  |  |  |
| Cc1ccc(N2CCN(C(=O)Nc3ncc(Cl)s3)CC2)cc1Cl [Compound 64] |  |  | 220 nM | activation of HIV-1 gene expression in leukapheresis samples ([2]; at 100 nM, n=4 or n=5 donors): activation in only one patient |
| Cc1cnc(NC(=O)CCCOc2ccccc2)s1 [Compound 41] |  | ~16500 nM | 14000 nM | induction of HIV-1 gene expression, % of the normalized value ([2]; at 5 μM, normalized between unstimulated baseline and PMA as 100%): 25%; dose dependent toxicity ([4]; dosed as high as 40 μM): no such toxicity |
